Test [1] deals with Rhodamine labeled microtubules. Description: Microtubule gliding assay. The test is classed as biochemical. More on the design: % of gliding microtubules (n = 50): dose or concentration left out as unconfirmed. The following applies: for % of gliding microtubules (n = 50): only MTs with gliding speed >0.025 μm/min counted; for Mean gliding speed: only MTs with motility >0.05 μM/min.
Description: The slide was blocked with the blocking buffer. For the slide loaded with HA-p68, 10 μl of calmodulin with 0.5 mM of Ca^2+ was added to the slide and was incubated for 10 minutes. After loading the slide was washed with the Ca^2+ containing wash buffer to remove the unbound proteins. The prepared Rodamine labeled microtubules were then loaded onto the slide. The same Ca^2+ containing wash buffer was used to remove unbound microtubules. The movement of microtubules was then recorded by the confocal microscope.
HA-p68 was purified from SW480 cells with/without scratch-wound treatment and attached to a glass slide. Rhodamine-labeled microtubule was then added to the glass slide. Migration of the microtubule in the presence and absence of ATP was then recorded.

In the next test the test system is SW480 cells. Description: Boyden chamber cell migration assay, SW480. The test is classed as cell-based. The method, then: (§1) Boyden chamber assay: QCM™ 24-Well Fluorimetric Cell Migration Assay kit was used to measure the migration of SW480 cells. The test cells were first treated under the different conditions in regular cell culture plates. The treated cells were re-suspended into optimum medium (without serum) and seeded into the inner chamber of the migration assay kit. The L-15 culture medium with 10% FBS was added to the outer chambers. After overnight incubation, medium in the inner chamber was removed and the cells attached to the outer bottom side were detached using the cell detachment buffer (included in the kit). The detached cells were then lysed using the cell lysis buffer (included in the kit). The amounts of the migrated cells were determined by measuring the fluorescence using λex=485 nm and λem=535 nm. The migration of the control cells with p68 knockdown was defined as 1.

The next test concerns the target T1, p68-CaM interaction (Homo sapiens, UniProt P0DP23).
T1 construct: co-immunoprecipitation with extracts of SW480 cells using an antibody against CaM; endogenous in cells; host or cells: SW480
As to the kind of experiment: p68-CaM co-immunoprecipitation in scratch-wound treated SW480 cells. The following applies: co-immunoprecipitation with antibody against CaM. The test is classed as cell-based. The procedure:
Scratch-wound treatments: A scratch or multiple scratches using pipette tips were introduced into a 6 well cell culture plate. The cells were further cultured under serum starvation for 30 minutes, and were subsequently cultured for an additional indicated time. The scratch-treated cells were either directly visualized by microscopes or the cells were fixed and subsequently examined by immunostaining. Alternatively, the cells were collected and lysized. The prepared cellular extracts were then used for other analyses.
CaM beads pull-down assay was used to determine whether the PepIQ peptide affected the p68 and CaM interaction. […] Thus, the p68-CaM interaction was examined under migration stimuli by co-immunoprecipitation with extracts of SW480 cells using an antibody against CaM. […] Similarly, there was a strong increase in the p68 and CaM co-precipitation upon the EGF treatment.
To test whether the PepIQ abolished the enhancement of the p68-CaM interaction induced by cell migration, the p68-CaM interaction was probed in cell lysate of SW480 cells that were treated by the peptide.

For test [2], the system named is SW620 xenograft. As to the kind of experiment: Metastasis inhibition of SW620 xenograft (human CK-18 RT-PCR of spleen extracts). The test is classed as in vivo, nude mice. For orientation: In xenograft studies the graft and the host belong to different species.
In another test the test system is E-cadherin and vimentin. As to the kind of experiment: PDGF stimulated EMT, cellular levels of EMT markers. It counts as cell-based. An excerpt:
We also examined whether the peptides would abolish PDGF stimulated EMT by analyzing the cellular levels of EMT markers, E-cadherin and vimentin. […] The effect of the PepIQ peptide on cancer metastasis was confirmed by an additional treatment using the PepIQ and a control peptide with a scrambled sequence (PepScram) (FIG. 6, Table 2, Table 4).

The subject of test [3] is SW620 xenograft. Description: Metastasis inhibition of SW620 xenograft (human CK-18 RT-PCR of spleen extracts). It counts as in vivo, nude mice. As to conditions: for Effect on SW620 metastasis: peptide 2 mg/kg i.p. daily for two weeks. The procedure: (§2) Metastasis inhibition of SW620 xenograft and orthotopic 4T1 tumors: All animal experiments were carried out in accordance with the guidelines of IACUC of Georgia State University. Nude mice or Balb/c mice (6 to 7 weeks old, Harlan Laboratory) were subcutaneously or orthotopically injected with 5×10^6 SW620 or 2×10^6 4T1 cells. Peptides at appropriate doses were administered to the tumor bearing mice by intraperitoneal (i.p.) injection at appropriate time intervals. Tumor formation and volumes were assessed every 2 days. Tumor volumes were measured by two perpendicular diameters of the tumors over a 4-week time course with the formula 4p/3×(width/2)^2×(length/2). The tumors and organs were collected and weighed at the end of the experiments. Tissue sections were prepared from harvested tumors and organs. Tissue sections were analyzed by either H&E or immune staining. For metastasis analyses of SW620 tumors, tissue extracts were prepared from spleens, total RNAs were extracted from the tissue extracts. RT-PCRs were performed with the isolated RNAs. For metastasis of 4T-1 cells, lung and liver were inspected.
The peptides were used to treat a nude mice xenograft of SW620 cells at dose of 2 mg/kg (i.p. daily dose for two weeks). SW620 cells were used because they contain high p68 Y593 phosphorylation (Carter, C L, et al. Oncogene 29:5427-5436 (2010); Yang, L, et al. Mol Cancer Res 3:355-363 (2005)). It is well established that the xenograft of SW620 will metastasize to lymph nodes, and the metastasis can be analyzed by examination of SW620 cells in the spleen (Liu, K, et al. J Immunol 171:4164-4174 (2003)).

The target of test [4] is T2, Myosin-II-CaM interaction (Homo sapiens, UniProt P0DP23).
T2 construct: endogenous in cells; host or cells: SW480
Description: Myosin-CaM co-immunoprecipitation in SW480 cell extracts. The test is classed as cell-based. The following applies: SW480 cells with/without multiple scratch-wound. The method, then: (§3) To test whether the PepIQ peptide disrupted the interaction of IQGAP1 or Myosin-II with CaM, cell extracts of SW480 cells that were treated by the PepIQ with/without multiple scratch-wound were co-immunoprecipitated using the antibody against CaM. […] The results also excluded a possibility that the PepIQ sequestered all CaM in the cells therefore inhibited cell migration. Thus, these experiments supported the notion that cell migration strengthened the p68-CaM interaction, and the IQ peptide disrupted the p68-CaM interaction induced by migration, thereby inhibiting cell migration.

Test [5] concerns Mouse breast cancer 4T1 cells. Description: Orthotopic 4T1 tumor metastasis model. The test is classed as in vivo, Balb/c mouse. The procedure: as §2
The PepIQ was very effective in inhibiting cancer metastasis with xenograft model of SW620 cells, indicating a potential application for metastasis intervention using the peptide or its derivatives. Thus, the effects of the peptide on metastasis in another cancer model was tested. Mouse breast cancer 4T1 cells were implanted into mammary gland of Balb/c mouse. Four days post-tumor implantation, the mice were treated by the PepIQ, the control peptide (PepScram), and buffer by 2 mg/kg daily dose for 14 days via i.p. injection. The mice were sacrificed at 26 days after tumor implantation. The primary tumors and major metastasis organs, lungs and liver, were collected and examined. […] The numbers of visible metastatic nodules in lung in the PepIQ treated group were much less and the nodules were much smaller than those in the PepScram and buffer treated groups (FIGS. 5B-5D). […] To test whether the PepIQ also affected the cell migration of 4T1 cells, cell migration assays were conducted.

The target of another test is T3, IQGAP1-CaM interaction (Homo sapiens, UniProt P0DP23).
T3 construct: endogenous in cells; host or cells: SW480
As to the kind of experiment: IQGAP1-CaM co-immunoprecipitation in SW480 cell extracts. The test is classed as cell-based. The following applies: SW480 cells with/without multiple scratch-wound. The procedure:
as §3

In the next test the target is T4, p68 and CaM interaction (Homo sapiens, UniProt P0DP23).
T4 construct: purchased Abcam; host or cells: p68 comes from SW480 whole cell lysate (endogenous)
As to the kind of experiment: CaM beads pull-down of p68. It counts as binding. The following applies: no migration stimuli. The procedure: CaM beads pull-down assay was used to determine whether the PepIQ peptide affected the p68 and CaM interaction. […] Thus, the p68-CaM interaction was examined under migration stimuli by co-immunoprecipitation with extracts of SW480 cells using an antibody against CaM. […] Similarly, there was a strong increase in the p68 and CaM co-precipitation upon the EGF treatment. Calmodulin beads pull-down: Whole cell lysate from SW480 cells was prepared as previously described (Yang L, et al. Cell 127:139-155 (2006); Yang L, et al. Mol Cancer Res 3:355-363 (2005)). The agarose beads conjugated with recombinant calmodulin (Abcam) were pre-washed with Ca2+ containing buffer (2 mM CaCl2, 50 mM NaCl in 50 mM Tris-HCl pH 7.5) or EGTA containing buffer (5 mM EGTA, 50 NaCl in 50 mM Tris-HCl pH 7.5). After washing, the beads were incubated with the whole cell lysates in the Ca^2+ containing or EGTA containing buffer. The beads were extensively washed after incubation. Finally, 2× SDS-loading buffer were added to the beads and the beads were heated to 85° C. for 10 minutes. The proteins that were pulled down by the CaM beads were analyzed by 10% SDS PAGE and subsequent immunoblot.

Another test deals with 4T1 cells. Description: 4T1 cell migration (Boyden chamber and scratch-wound assays). It counts as cell-based, mouse. The method, then: as §1, with “Scratch-wound treatments: A scratch or multiple scratches using pipette tips were introduced into a 6 well cell culture plate. The cells were further cultured under serum starvation for 30 minutes, and were subsequently cultured for an additional indicated time. The scratch-treated cells were either directly visualized by microscopes or the cells were fixed and subsequently examined by immunostaining. Alternatively, the cells were collected and lysized. The prepared cellular extracts were then used for other analyses. Boyden” for “Boyden”, “1. […]” for “1.”

Setting [6] is: Table 1, TAT-fused peptides 2 mg/kg i.p. daily for two weeks, mice with metastasis/mice in group.
Setting [7] is: vs PepScram and buffer treated groups.

“Also recorded” adds a separate entry of the source. No end group written: not given here. TAT = TAT cell-permeable sequence

For “p68/Ca^2+-CaM: HA-p68 immunopurified from scratch-wound treated SW480 cells, in the presence of CaM and Ca2+”, in test [1] (ATP), the Maximum gliding speed was 0.52 ± 0.14 μm/min, the “% of gliding microtubules (n = 50)” value is on record as 74.15 ± 1.20% and the Mean gliding speed was 0.16 ± 0.12 μm/min. In test [1] (no ATP), the Maximum gliding speed came to 0.01 ± 0.00 μm/min, the “% of gliding microtubules (n = 50)” value worked out at 5.79 ± 3.13% and the Mean gliding speed came out at 0.00 ± 0.00 μm/min.
Turning to “eGFP-IQ: fusion protein containing amino acids 549-568 of p68 fused to the C-terminus of eGFP, expressed in SW620/SW480 cells (FVSAGIQTSFRTGNPTGTYQ; also: fused to C-terminus of eGFP)”, the Cell migration entry with SW480 cells (stable expression in SW480 cells) is “dramatically inhibited”. The “Increase in the p68-CaM interaction upon multiple scratch wound” value with p68-CaM interaction is “not dramatically strengthened”. In addition, the Metastasis rate in the test on SW620 xenograft [2] (Table 3, xenograft of SW620 cells expressing the protein) is 2/6. Besides, the “Effect on cancer metastasis of the SW620 xenograft” value with SW620 xenograft [2] (protein expressed in SW620 cells) is listed as “greatly reduced”.
As for “PepY593: p68 aa 584-602 peptide MHNGMNQQAYAYPATAAAP (SEQ ID NO:2), without Y593 phosphorylation, TAT-fused at N-terminus; control peptide ({TAT}-MHNGMNQQAYAYPATAAAP)”, the “Levels of E-cadherin and vimentin” value in the test with E-cadherin and vimentin is “not significantly affected”. The Metastasis rate in the test on SW620 xenograft [3] (setting [6]) is recorded as 5/5.
For the substance “PepPhoY593: p68 aa 584-602 peptide with Y593 phosphorylation, MHNGMNQQA[p]YAYPATAAAP (SEQ ID NO:3), TAT-fused at N-terminus”, in the test with E-cadherin and vimentin, the “Levels of E-cadherin and vimentin” value was “decrease in vimentin and an increase in Ecadherin”. Besides, the Metastasis rate with SW620 xenograft [3] (setting [6]) was 3/5. The “Effect on SW620 metastasis” value in the test with SW620 xenograft [3] was “almost no effects; also recorded: no effects on cancer metastasis”.
On to “PepIQ (FASGQINTFVSRGTPGYATGMHNGMNQQAPYAYPATAAAPFVSAGIQTSFRTGNPTGAYG)”, for which the Cell migration result in the test on SW480 cells (SW480 cells treated with peptide) is “almost completely inhibited”. In addition, in test [4], the Myosin-CaM interaction result is “not affected”. For the same substance, the “Levels of E-cadherin and vimentin” value with E-cadherin and vimentin is “not significantly affected”. Moreover, in test [5] (2 mg/kg daily for 14 days i.p.), the “Cancer metastasis in the lung (mice affected)” value was 3 out of 4 and the “Mice with no micrometastasis lesion in liver tissue sections” value is “two out of four”. Besides, the “Average numbers of micrometastasis lesions in liver” value in [5] (4 fields from three tissue sections per liver, vs buffer and PepScram groups) was “substantially less”. Moreover, in test [5] (setting [7]), the “Numbers of visible metastatic nodules in lung” value is on record as “much less” and the “Size of metastatic nodules in lung” value is listed as “much smaller”. Moreover, the “Size of micrometastasis lesions in liver” value in test [5] (vs control groups) is “substantially smaller”. In addition, the IQGAP1-CaM interaction result in the test with IQGAP1-CaM interaction was “not affected”. Moreover, the “Change in p68-CaM interaction” value in the test with p68 and CaM interaction is given as “did not lead to dramatic changes”. Moreover, the “Cell migration of 4T1 cells” value with 4T1 cells was “dramatically reduced”. Moreover, in the test on SW620 xenograft [3] (setting [6]), the Metastasis rate was 1/5. For the same substance, in the test with SW620 xenograft [3] (Table 2, additional treatment, PepIQ vs scrambled control peptide), the Metastasis rate was 2/5. Further, in the test on SW620 xenograft [3], the “Effect on SW620 metastasis” value is given as “largely diminished; also recorded: inhibited the metastasis”.
